Laboratory results: patent US11186599B2, “Phosphonamide ester compound, salt thereof, related crystal form thereof, preparation method therefor and use thereof” (SICHUAN KELUN-BIOTECH BIOPHARMACEUTICAL CO., LTD., priority 2018, dated 2021)
≈ marks a conversion by molar mass, not a printed value. Like-named read-outs stand apart in the source and are kept apart here.

Legend:
[1] = Pharmacokinetic experiment in beagle dogs; type: in vivo; details: capsules intragastrically, 2.5 mg/kg
Method: The crystalline forms A and C of the fumarate salt of the compound of Formula (I) were encapsulated into capsules and administered intragastrically to beagle dogs at a dose of 2.5 mg/kg. Venous blood was collected at different time points after administration and separately subjected to the detection of the original free base form of the compound of Formula (I) and its metabolite tenofovir (TFV).

[2] = phase III clinical trial, cited from earlier work
[3] = Hygroscopicity test by dynamic vapor sorption (DVS); type: physicochemical; details: 25° C.
Method: The hygroscopicity of crystalline forms A and B of the fumarate salt was measured by dynamic vapor sorption (DVS) using a DVS Intrinsic (SMS) at 25° C. in a cycle-DMDT mode.

[4] = Solubility determination (shaking 24 hours, HPLC); type: physicochemical; details: for solubility at 24 h: thermodynamic from solid, shaking 24 hours
Method: An aqueous solution of pH 2.0 (the pH was adjusted with an appropriate amount of hydrochloric acid), an aqueous solution of pH 7.4 (the pH was adjusted with 10 mM potassium dihydrogen phosphate and an appropriate amount of NaOH), and a fasted-state simulated intestinal fluid (FaSSIF) were prepared as solvents, respectively. Several portions of the sample for test, 1 mg each, were weighed and dissolved in different solvents, 1 mL each. The solutions were thoroughly shaked, and then subjected to ultrasonic operation for 5 minutes. […] After shaking in a constant temperature shaking water bath for 24 hours, filtration was carried out through a 0.45 uM aqueous filter membrane, followed by HPLC analysis for determination of the solubility.

[5] = Physicochemical stability test, placed open at 40° C./75% RH; details: placed open 14 days at 40° C./75% RH
Method: An appropriate amount of crystalline form A of the fumarate salt of the compound of Formula (I) of the invention was detected for the physicochemical stability thereof under the following conditions: placed open for 14 days at 40° C./75% RH. XRPD and LC-MS analysis were then carried out to determine the crystalline form and the change in purity.

[6] = analyte: free base of the compound of Formula (I), listed as crystalline form C of the fumarate salt
[7] = beagle, dog, venous blood, po, analyte: free base of the compound of Formula (I)
[8] = analyte: free base of the compound of Formula (I), listed as crystalline form A of the fumarate salt

SMILES: C[C@H](Cn1cnc2c(N)ncnc21)OC[P@@](=O)(NCCOCc1ccccc1)Oc1ccccc1 [listing 1 of 3 here]
- AUCINF [1, 6]: 43.4 ng·h/mL
- AUClast [1, 6]: 41.7 ng·h/mL
- Cmax [1, 6]: 77.5 ng/mL
- MRTINF [1, 6]: 33.6 min
- T1/2 [1, 6]: 17.4 min
- Tmax [1, 6]: 18.6 min

SMILES: CC(C)OC(=O)[C@H](C)N[P@](=O)(CO[C@H](C)Cn1cnc2c(N)ncnc21)Oc1ccccc1 [TAF, Tenofovir alafenamide]
- ALT recovery rate ([2]; patients): lower than 80%
- Patients in whom glomerular filtration rate decreased by more than 25% ([2]; share of patients): more than 10%
- Patients in whom spinal bone mineral density (BMD) decreased by more than 5% ([2]; share of patients): more than 10%

SMILES: C[C@H](Cn1cnc2c(N)ncnc21)OC[P@@](=O)(NCCOCc1ccccc1)Oc1ccccc1 [listing 2 of 3 here]
- Mass change caused by moisture absorption (%) ([3]; target humidity 20%): 0.2%

SMILES: C[C@H](Cn1cnc2c(N)ncnc21)OC[P@@](=O)(NCCOCc1ccccc1)Oc1ccccc1 [listing 3 of 3 here]
- solubility at 24 h ([4]; aqueous solution of pH 2.0, simulated gastric fluid, aqueous solution pH 2.0 (hydrochloric acid), read-out: Solubility, H2O (pH 2.0)): 1000 µg/mL (≈ 2010 µM)
- solubility at 24 h ([4]; aqueous solution of pH 7.4, aqueous buffer, aqueous solution pH 7.4 (10 mM potassium dihydrogen phosphate/NaOH), read-out: Solubility, H2O (pH 7.4)): 990 µg/mL (≈ 1990 µM)
- solubility at 24 h ([4]; fasted-state simulated intestinal fluid (FaSSIF), FaSSIF, read-out: Solubility, fasted-state simulated intestinal fluid (FaSSIF)): 910 µg/mL (≈ 1830 µM)
- Solubility (in words) ([4]; water and fasted-state intestinal fluid): good solubility
- Hygroscopicity (in words) ([3]; DVS): little or no hygroscopicity
- Mass change caused by moisture absorption (%) ([3]; target humidity 0%): 0%
- Mass change caused by moisture absorption (%) ([3]; target humidity 10%): 0.019%
- Mass change caused by moisture absorption (%) ([3]; target humidity 20%, listed as crystalline form A of the fumarate salt): 0.04%
- Mass change caused by moisture absorption (%) ([3]; target humidity 30%): 0.057%
- Mass change caused by moisture absorption (%) ([3]; target humidity 40%): 0.078%
- Mass change caused by moisture absorption (%) ([3]; target humidity 50%): 0.096%
- Mass change caused by moisture absorption (%) ([3]; target humidity 60%): 0.117%
- Mass change caused by moisture absorption (%) ([3]; target humidity 70%): 0.137%
- Mass change caused by moisture absorption (%) ([3]; target humidity 80%): less than 0.2%
- Mass change caused by moisture absorption (%) ([3]; target humidity 80%, listed as crystalline form A of the fumarate salt): 0.158%
- Mass change caused by moisture absorption (%) ([3]; target humidity 90%): less than 0.2%
- Mass change caused by moisture absorption (%) ([3]; target humidity 90%, listed as crystalline form A of the fumarate salt): 0.192%
- Relative purity after storage ([5]; LC-MS): up to 99%
- Change after storage (crystalline form and purity, in words) ([5]; XRPD and LC-MS): without significant change
- AUC(0-inf) [1, 7]: 66.7 ng·h/mL
- AUC(0-t) [1, 7]: 66.2 ng·h/mL
- half-life [1, 7]: 33 min
- Cmax ([1]; beagle, dog, venous blood, po, analyte: free base of the compound of Formula (I), read-out: Cmax): 67.4 ng/mL
- Conversion to TFV (in words) [1]: rapidly converted to TFV
- MRTINF [1, 8]: 73.2 min
- Tmax [1, 8]: 41.4 min
